From patent US9790173B2, “Alpha-7 nicotinic acetylcholine receptor modulators and uses thereof-I” (MERCK SHARP & DOHME CORP., priority 2012, dated 2017)

Legend:
rat α7 nAChRs = target: T1, rat α7 nAChRs (Rattus norvegicus, UniProt Q05941); test: Automated planar patch clamp (Patchliner) electrophysiology, α7 nAChR PAM activity; format: cell-based; set-up: key to Type I or Type II: I: Type 1 predominately affects the peak current; Type II modulators affect the peak current and also delay the desensitization of the receptor; details: for activation at 3 µM: GH4-C1, 3 μM compound in the presence of acetylcholine, GH4C1 cells expressing rat α7 nAChRs, peak current, read-out: Peak potentiation at 3 μM compound; for Type I or Type II: modulator type based on the electrophysiology trace
T1 construct: expressed in transfected cells; host or cells: GH4C1 cells (rat pituitary line) stably expressing α7 nAChR
T1 sequence (Q05941 23-502): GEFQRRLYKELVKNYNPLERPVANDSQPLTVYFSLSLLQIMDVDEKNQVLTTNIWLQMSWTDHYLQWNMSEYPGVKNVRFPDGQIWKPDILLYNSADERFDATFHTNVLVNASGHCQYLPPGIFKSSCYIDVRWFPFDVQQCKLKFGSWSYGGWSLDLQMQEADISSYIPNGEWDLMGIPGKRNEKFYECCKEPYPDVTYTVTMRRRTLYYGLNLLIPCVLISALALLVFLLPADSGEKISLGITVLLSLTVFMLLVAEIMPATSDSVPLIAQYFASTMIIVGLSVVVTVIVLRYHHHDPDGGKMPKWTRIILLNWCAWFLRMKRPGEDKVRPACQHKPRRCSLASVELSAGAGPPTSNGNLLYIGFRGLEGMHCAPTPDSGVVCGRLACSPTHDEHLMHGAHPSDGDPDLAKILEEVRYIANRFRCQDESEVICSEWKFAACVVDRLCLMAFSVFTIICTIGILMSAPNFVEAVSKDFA
Procedure: Tested compounds were prepared by serial dilutions of 10 mM stock solution in DMSO to concentrations of the compound 1000 times higher than its final concentration. The DMSO stock solutions were then diluted 1:100 in the recording buffer bringing DMSO concentration to 1%. These intermediate solutions were further diluted 10 times with buffer to obtain final concentrations and lower DMSO concentration to 0.1%. […]
Compounds of the invention may be evaluated by electrophysiology using a Patchliner® (Nanion Technologies GmbH, Germany), an automated planar patch-clamp platform of medium throughput was used as a first step in electrophysiological assessment of α7 nAChR positive allosteric modulators (PAMs).
Briefly, intracellular (KCl—50 mM, NaCl—10 mM, KF—60 mM, EGTA—20 mM, HEPES—10 mM, pH—7.2, 285 mOsmol) and extracellular (NaCl—140 mM, KCl—4 mM, CaCl2—2 mM, MgCl2—1 mM, HEPES—10 mM, D-Glucose—5 mM, pH—7.4, 298 mOsmol) solutions were automatically pipetted onto NPC-16 chip (medium resistance ˜2.5-2.6 MΩ). Suspension of GH4C1 cells expressing rat α7 nAChRs was introduced in 4 wells of a medium resistance chip and suction was applied to attract cells in the holes. The extracellular solution was subsequently exchanged to high calcium solution (NaCl—80 mM, KCl—3 mM, CaCl2—45 mM, HEPES—10 mM, pH—7.4, 298 mOsmol) followed by gigaohm seal formation and obtaining whole-cell configuration. The rest of protocol was carried out in the high-calcium recording solution. Holding potential was −70 mV throughout the protocol. A control response to 60 or 100 μM of ACh was obtained first. Next, a cell was pre-incubated with compound of interest at 3 μM for ˜30 s after which the compound was co-applied with acetylcholine.
Amplitude of the responses was measured in HEKA Patchmaster software (HEKA Elektronik, Germany) and percentage of potentiation calculated. Recording was repeated […] a minimum of two replicates had been obtained per compound.
Compounds shown in Table 1 were evaluated by automated planar patch clamp on the Patchliner® as described in Example P2.1. […] The compounds are designated either as Type I or Type II modulators based on the electrophysiology trace. Type 1 predominately affects the peak current. Type II modulators affect the peak current and also delay the desensitization of the receptor.

mice = test: T-maze Continuous Alternation Task (T-CAT), scopolamine-induced cognitive impairment; format: in vivo; details: mouse; dosed orally at 10 mg/kg; scopolamine-induced deficit
Description: The T-maze Continuous Alternation Task (T-CAT) measures spontaneous alternation, which is the innate tendency of mice to alternate free choices in a T-maze over a series of successive runs. This sequential procedure relies on working memory and is sensitive to various pharmacological manipulations affecting memory processes.
The T-maze apparatus is made of gray Plexiglas with a main stem (55 cm long×10 cm wide×25 cm high) and two arms (30 cm long×10 cm wide×25 cm high) positioned at 90 degree angle relative to the main stem. A start box (15 cm long×10 cm wide) is separated from the main stem by a sliding door. Sliding doors are also provided to close specific arms during the forced-choice alternation task.
The experimental protocol consists of one single session, which starts with 1 “forced-choice” trial, followed by 14 “free-choice” trials. In the first “forced-choice” trial, the animal is confined for 5 s in the start arm and then it is released while either the left or right goal arm is blocked by a sliding door. The animal will negotiate the maze, eventually enter the open goal arm, and return to the start position. Immediately after the return to the start position, the left or right goal door is opened and the animal is allowed to choose freely between the left and right goal arm (“free choice” trials). The animal is considered to have entered an arm when it places four paws in the arm. A session is terminated and the animal is removed from the maze as soon as 14 free-choice trials have been performed or 10 minutes have elapsed, whichever event occurs first. The percentage of alternation over the 14 free-choice trials is determined for each mouse and is used as an index of working memory performance. This percentage is defined as entry in a different arm of the T-maze over successive visits (i.e., left-right-left-right, etc).
Scopolamine administered 20 minutes prior the initiation of the T-maze session is used to induce disruption in the spontaneous alternation of mice. Test compounds are administered 60 minutes prior the start of the T-maze session in order to evaluate their ability to reverse the scopolamine effect.
The apparatus is cleaned between each animal using alcohol (70°). Urine and faeces are removed from the maze. During the trials, animal handling and the visibility of the operator are minimized as much as possible.
The compounds were dosed orally at 10 mg/kg.

SMILES | activation at 3 µM (rat α7 nAChRs) | Type I or Type II (rat α7 nAChRs) | T-maze % control at 10 mg/kg (mice) | melting point
NS(=O)(=O)c1ccc([C@H]2C[C@@H]2CNc2ccc(F)cc2)cc1 [Example 3, ±trans 4-(2-{[(4-fluorophenyl)amino]methyl}cyclopropyl)benzenesulfonamide] | 969% | I | 62 % control | 
CC1(C)[C@H](CNc2ccc(F)cc2)[C@H]1c1ccc(S(N)(=O)=O)cc1 [Example 13, ±trans 4-[3-{[(4-fluorophenyl)amino]methyl}-2,2-dimethylcyclopropyl]benzenesulfonamide] |  | II | 80 % control | 
CC1(C)[C@@H](CNc2ccc(F)cc2C(F)(F)F)[C@@H]1c1ccc(S(N)(=O)=O)cc1 [Example 17, 4-[(1S,3S)-3-({[4-fluoro-2-(trifluoromethyl)phenyl]amino}methyl)-2,2-dimethylcyclopropyl]benzenesulfonamide] |  | I | 100 % control | 
COc1ccc(Cl)cc1NC[C@@H]1[C@@H](c2ccc(S(N)(=O)=O)cc2)C1(C)C [Example 20, 4-[(1R,3R)-3-{[(5-chloro-2-methoxyphenyl)amino]methyl}-2,2-dimethylcyclopropyl]benzenesulfonamide] |  | I | 100 % control | 
COc1ccc(Cl)cc1NC[C@H]1[C@H](c2ccc(S(N)(=O)=O)cc2)C1(C)C [Example 21, 4-[(1S,3S)-3-{[(5-chloro-2-methoxyphenyl)amino]methyl}-2,2-dimethylcyclopropyl]benzenesulfonamide] |  | II | 100 % control | 
CC1(C)[C@H](CNc2cccc(Cl)c2)[C@H]1c1ccc(S(N)(=O)=O)cc1 [Example 24, ±trans 4-[3-{[(3-chlorophenyl)amino]methyl}-2,2-dimethylcyclopropyl]benzenesulfonamide] | 901% | II |  | 120 to 122 °C
CCOc1ccc(Cl)cc1NC[C@@H]1[C@@H](c2ccc(S(N)(=O)=O)cc2)C1(C)C [Example 27, ±trans 4-[3-{[(5-chloro-2-ethoxyphenyl)amino]methyl}-2,2-dimethylcyclopropyl]benzenesulfonamide] |  | I |  | 122 to 124 °C
COc1ccc(C(F)(F)F)cc1NC[C@@H]1[C@@H](c2ccc(S(N)(=O)=O)cc2)C1(C)C [Example 28, ±trans 4-[3-({[2-methoxy-5-(trifluoromethyl)phenyl]amino}methyl)-2,2-dimethylcyclopropyl]benzenesulfonamide] |  | II |  | 68 to 70 °C
Cc1cc(F)c(F)cc1NC[C@@H]1[C@@H](c2ccc(S(N)(=O)=O)cc2)C1(C)C [Example 30, 4-[(1R,3R)-3-{[(4,5-difluoro-2-methylphenyl)amino]methyl}-2,2-dimethylcyclopropyl]benzenesulfonamide] | 419% | I | 70 % control | 210 to 212 °C
Cc1ncccc1NC[C@@H]1[C@@H](c2ccc(S(N)(=O)=O)cc2)C1(C)C [Example 36, ±trans 4-[2,2-dimethyl-3-{[(2-methylpyridin-3-yl)amino]methyl}cyclopropyl]benzenesulfonamide] | 125% | II |  | 174 to 176 °C
Cc1cc(F)c(Cl)cc1NC[C@@H]1[C@@H](c2ccc(S(N)(=O)=O)cc2)C1(C)C [Example 37, ±trans 4-[3-{[(3-chloro-4-fluoro-2-methylphenyl)amino]methyl}-2,2-dimethylcyclopropyl]benzenesulfonamide] |  | II |  | 164 to 166 °C
COc1ncccc1NC[C@@H]1[C@@H](c2ccc(S(N)(=O)=O)cc2)C1(C)C [Example 42, ±trans 4-(3-{[(2-methoxypyridin-3-yl)amino]methyl}-2,2-dimethylcyclopropyl)benzenesulfonamide] |  | II |  | 98 to 100 °C
CC1(C)[C@H](CNc2cc(Cl)ccc2C(F)(F)F)[C@H]1c1ccc(S(N)(=O)=O)cc1 [Example 45, ±trans 4-[3-({[5-chloro-2-(trifluoromethyl)phenyl]amino}methyl)-2,2-dimethylcyclopropyl]benzenesulfonamide] |  | I |  | 124 to 126 °C
Cc1cccnc1NC[C@@H]1[C@@H](c2ccc(S(N)(=O)=O)cc2)C12CCCC2 [Example 49, ±trans 4-[2-{[(3-methylpyridin-2-yl)amino]methyl}spiro[2.4]hept-1-yl]benzenesulfonamide] |  | II |  | 82 to 84 °C
CC1(C)[C@@H](CNc2ccc(F)cc2OC(F)F)[C@@H]1c1ccc(S(N)(=O)=O)cc1 [Example 50, 4-[(1S,3S)-3-({[2-(difluoromethoxy)-4-fluorophenyl]amino}methyl)-2,2-dimethylcyclopropyl]benzenesulfonamide] |  | II | 77 % control | 
CC1(C)[C@H](CNc2ccc(F)cc2OC(F)F)[C@H]1c1ccc(S(N)(=O)=O)cc1 [Example 51, 4-[(1R,3R)-3-({[2-(difluoromethoxy)-4-fluorophenyl]amino}methyl)-2,2-dimethylcyclopropyl]benzenesulfonamide] | 171% | I | 81 % control | 
NS(=O)(=O)c1ccc([C@H]2C[C@@H]2CNc2cc(F)ccc2OC(F)(F)F)cc1 [Example 52, 4-[(1S,2S)-2-({[5-fluoro-2-(trifluoromethoxy)phenyl]amino}methyl)cyclopropyl]benzenesulfonamide] |  | II |  | 115 to 118 °C
COc1ccc(Cl)cc1NC[C@H]1C[C@@H]1Cc1ccc(S(N)(=O)=O)cc1 [Example 54, ±trans 4-{[-2-{[(5-chloro-2-methoxyphenyl)amino]methyl}cyclopropyl]methyl}benzenesulfonamide] | 574% | I |  | 126 to 128 °C
